ChEMBL document CHEMBL1201862, “PubChem BioAssay data set” (2004)
Each block holds one molecule with its values, some of them ahead of it. Calls of active or inactive are those of the source.

What was measured:
[1] = biological target: Heat shock protein HSP 90-alpha (Homo sapiens, UniProt P07900); assay type: functional, organism-based
[2] = biological target: T1, Histone-lysine N-methyltransferase NSD2 (Homo sapiens, UniProt O96028); assay type: biochemical
T1 sequence (O96028 whole entry): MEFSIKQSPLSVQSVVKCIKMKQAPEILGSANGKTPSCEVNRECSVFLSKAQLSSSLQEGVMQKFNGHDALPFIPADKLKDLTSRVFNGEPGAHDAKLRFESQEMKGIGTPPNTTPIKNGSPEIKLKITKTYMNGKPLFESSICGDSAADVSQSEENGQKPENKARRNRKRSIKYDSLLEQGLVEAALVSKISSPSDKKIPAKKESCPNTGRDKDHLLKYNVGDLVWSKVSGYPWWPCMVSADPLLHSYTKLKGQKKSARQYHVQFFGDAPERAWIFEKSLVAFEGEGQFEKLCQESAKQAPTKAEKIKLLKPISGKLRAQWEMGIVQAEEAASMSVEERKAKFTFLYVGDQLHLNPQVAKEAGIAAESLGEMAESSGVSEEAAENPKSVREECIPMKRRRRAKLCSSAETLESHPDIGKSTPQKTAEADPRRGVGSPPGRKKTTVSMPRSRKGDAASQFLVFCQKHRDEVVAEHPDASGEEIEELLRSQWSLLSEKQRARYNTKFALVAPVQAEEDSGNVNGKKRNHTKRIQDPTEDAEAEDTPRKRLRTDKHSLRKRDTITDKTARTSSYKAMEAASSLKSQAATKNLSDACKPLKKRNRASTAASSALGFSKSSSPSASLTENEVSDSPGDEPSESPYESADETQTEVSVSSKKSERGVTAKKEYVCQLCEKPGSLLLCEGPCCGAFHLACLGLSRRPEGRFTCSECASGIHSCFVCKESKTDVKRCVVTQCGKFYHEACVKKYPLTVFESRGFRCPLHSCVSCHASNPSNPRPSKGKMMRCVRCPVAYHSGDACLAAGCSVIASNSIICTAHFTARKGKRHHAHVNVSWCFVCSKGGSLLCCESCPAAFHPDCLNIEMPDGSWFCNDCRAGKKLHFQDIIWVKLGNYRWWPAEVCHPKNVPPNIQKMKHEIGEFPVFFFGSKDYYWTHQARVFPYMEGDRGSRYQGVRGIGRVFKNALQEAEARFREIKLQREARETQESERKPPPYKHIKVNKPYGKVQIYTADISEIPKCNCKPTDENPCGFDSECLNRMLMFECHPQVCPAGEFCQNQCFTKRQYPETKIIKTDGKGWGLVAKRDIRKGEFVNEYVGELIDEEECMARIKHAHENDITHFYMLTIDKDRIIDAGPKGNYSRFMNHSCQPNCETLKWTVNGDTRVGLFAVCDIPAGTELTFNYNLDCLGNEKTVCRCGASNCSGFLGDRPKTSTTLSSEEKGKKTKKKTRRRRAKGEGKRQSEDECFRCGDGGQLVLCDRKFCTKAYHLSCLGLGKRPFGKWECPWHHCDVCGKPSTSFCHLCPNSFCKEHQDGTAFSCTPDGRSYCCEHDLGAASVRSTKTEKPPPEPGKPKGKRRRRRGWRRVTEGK

[3] = toxicity toward HepG2 liver cells – cell-based, plate reader, cherry-pick, antagonist series, cytotoxicity control, dose response (AID 743416); assay type: functional
[4] = viability loss in HepG2 hepatoma cells – cell-based, ATP luminescence, cherry-pick, activator set 2, cytotoxicity control, dose response (AID 1053143); assay type: functional
[5] = blockers of bursicon-stimulated LGR2 cAMP reporter – cell-based, HEK293, CRE-luciferase reporter, cherry pick, set 2, dose response (AID 743343); assay type: functional;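 note: transfected cells were stimulated with diluted bursicon conditioned medium after compound addition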
INS1 = experiment: INS-1E survival protection against cytokine death – cell-based, luminescence, retest, dose response (AID 449756); assay type: functional; conditions: Rattus norvegicus;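 note: cell death triggered by IL-1 beta plus TNF-alpha plus IFN-gamma mixture; protective hits raise ATP signal compared with cytokine alone wells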
[6] = blockade of melanocortin 4 receptor signaling – cell-based, plate reader, cherry pick, counter-screen for LGR2 antagonist project, dose response (AID 743444); assay type: functional;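 note: transfected HEK 293 cells stimulated with alpha-MSH peptide; potency of inhibitors of the alpha-MSH evoked signal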
[7] = A549 cell cytotoxicity, dose response, cytotoxicity control, plate reader, cherry-pick, antagonist series (AID 743412); assay type: functional, cell-based
[8] = viability loss in HEK293 cells – cell-based, plate reader, cherry-picked samples, cytotoxicity control, dose response (AID 743446); assay type: functional
[9] = biological target: T2, DNA repair and recombination protein RAD54-like (Homo sapiens, UniProt Q92698); experiment: RAD54 Holliday junction migration blockers – biochemical, fluorescence, cherry-picked samples, dose series, confirmation (AID 651657); assay type: functional
T2 sequence (Q92698 whole entry): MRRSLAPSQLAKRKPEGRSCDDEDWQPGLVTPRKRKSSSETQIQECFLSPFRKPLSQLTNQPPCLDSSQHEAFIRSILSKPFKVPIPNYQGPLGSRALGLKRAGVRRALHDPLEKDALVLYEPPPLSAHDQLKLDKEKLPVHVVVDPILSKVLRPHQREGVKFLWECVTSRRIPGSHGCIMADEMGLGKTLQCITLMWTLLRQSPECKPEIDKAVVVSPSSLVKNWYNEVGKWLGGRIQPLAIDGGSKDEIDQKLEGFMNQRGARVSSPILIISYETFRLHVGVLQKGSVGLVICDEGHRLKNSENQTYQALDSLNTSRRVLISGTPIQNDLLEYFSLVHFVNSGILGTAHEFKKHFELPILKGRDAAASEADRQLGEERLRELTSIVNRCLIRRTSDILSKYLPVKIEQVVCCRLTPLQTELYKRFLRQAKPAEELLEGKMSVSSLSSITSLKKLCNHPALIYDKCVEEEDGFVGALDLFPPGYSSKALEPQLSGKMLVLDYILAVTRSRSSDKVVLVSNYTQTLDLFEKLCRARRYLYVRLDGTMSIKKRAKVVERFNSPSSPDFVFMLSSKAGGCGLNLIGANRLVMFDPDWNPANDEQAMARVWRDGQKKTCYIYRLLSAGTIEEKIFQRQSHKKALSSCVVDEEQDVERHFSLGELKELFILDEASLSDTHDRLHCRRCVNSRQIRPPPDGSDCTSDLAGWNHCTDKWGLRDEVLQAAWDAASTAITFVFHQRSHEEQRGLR

[10] = biological target: T3, Corticotropin-releasing factor receptor 2/Corticotropin-releasing factor-binding protein (Homo sapiens, UniProt P24387+Q13324); experiment: activators of CRF receptor 2 with binding protein – uHTS hits, confirmation (AID 602473); assay type: functional; conditions: read-out: EC50_Mean
T3 sequence (Q13324 whole entry): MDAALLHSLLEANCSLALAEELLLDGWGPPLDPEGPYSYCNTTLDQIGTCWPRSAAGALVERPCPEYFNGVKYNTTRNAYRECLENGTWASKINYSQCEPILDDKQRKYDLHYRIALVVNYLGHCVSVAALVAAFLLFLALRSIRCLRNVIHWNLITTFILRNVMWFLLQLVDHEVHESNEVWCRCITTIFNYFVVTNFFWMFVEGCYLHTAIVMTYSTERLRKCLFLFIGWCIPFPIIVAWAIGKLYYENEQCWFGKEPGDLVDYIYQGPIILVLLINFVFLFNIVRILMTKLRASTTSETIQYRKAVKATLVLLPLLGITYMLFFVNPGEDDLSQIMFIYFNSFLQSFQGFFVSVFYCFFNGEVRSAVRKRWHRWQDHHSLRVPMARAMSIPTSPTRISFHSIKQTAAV
T3 sequence (P24387 whole entry): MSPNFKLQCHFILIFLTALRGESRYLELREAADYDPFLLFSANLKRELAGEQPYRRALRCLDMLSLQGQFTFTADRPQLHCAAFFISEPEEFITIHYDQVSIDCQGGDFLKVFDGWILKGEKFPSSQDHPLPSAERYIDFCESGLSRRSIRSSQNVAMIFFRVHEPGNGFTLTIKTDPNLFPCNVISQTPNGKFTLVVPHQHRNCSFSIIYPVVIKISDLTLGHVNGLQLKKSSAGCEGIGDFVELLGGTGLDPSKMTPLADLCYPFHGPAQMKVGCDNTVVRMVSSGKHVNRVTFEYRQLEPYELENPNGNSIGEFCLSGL

[11] = biological target: T4, Low molecular weight phosphotyrosine protein phosphatase (Homo sapiens, UniProt P24666); assay type: functional; conditions: read-out: IC50_Mean
T4 sequence (P24666 whole entry): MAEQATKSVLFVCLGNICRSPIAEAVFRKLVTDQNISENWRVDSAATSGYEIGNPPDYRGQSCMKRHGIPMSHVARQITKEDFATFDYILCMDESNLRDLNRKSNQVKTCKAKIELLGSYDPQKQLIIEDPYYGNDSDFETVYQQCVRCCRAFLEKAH

[12] = biological target: T3, Corticotropin-releasing factor receptor 2/Corticotropin-releasing factor-binding protein; experiment: Dose Response confirmation of uHTS hits for small molecule antagonists of the CRF-binding protein and CRF-R2 receptor complex.; assay type: functional; conditions: read-out: IC50_Mean
[13] = biological target: T5, Heat shock factor protein 1 (Mus musculus, UniProt P38532); experiment: decrease of HSF1-responsive luciferase luminescence – cell-based, NIH3T3, dose retest, confirmation (AID 2382); assay type: functional;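 note: NIH3T3 fibroblasts with HSF1-driven luciferase reporter stressed by proteasome inhibitor MG132; luminescence from HSF1-driven luciferase expression after 8 hours of MG132 stress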
T5 sequence (P38532 whole entry): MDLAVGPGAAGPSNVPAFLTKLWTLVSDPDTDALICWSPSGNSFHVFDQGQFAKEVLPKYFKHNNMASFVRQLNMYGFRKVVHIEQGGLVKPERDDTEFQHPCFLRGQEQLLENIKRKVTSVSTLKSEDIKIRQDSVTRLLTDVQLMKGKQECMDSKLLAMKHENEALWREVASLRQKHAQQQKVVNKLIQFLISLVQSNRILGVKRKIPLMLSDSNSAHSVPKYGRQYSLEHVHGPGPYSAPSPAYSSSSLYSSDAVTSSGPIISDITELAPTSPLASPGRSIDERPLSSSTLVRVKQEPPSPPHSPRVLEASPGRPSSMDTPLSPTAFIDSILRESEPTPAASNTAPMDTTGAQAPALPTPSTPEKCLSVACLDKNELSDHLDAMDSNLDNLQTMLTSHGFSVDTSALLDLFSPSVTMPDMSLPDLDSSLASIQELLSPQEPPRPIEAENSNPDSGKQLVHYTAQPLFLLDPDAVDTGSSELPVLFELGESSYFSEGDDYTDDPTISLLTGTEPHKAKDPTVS

[14] = biological target: T4, Low molecular weight phosphotyrosine protein phosphatase; assay type: functional; conditions: read-out: IC50_Mean; remark: listed apart in the source

SMILES: CC(=O)Nc1sc2c(c1-c1nc3ccccc3s1)CN(C(C)C)CC2
AC50 [3]: 3.52 µM (active)
AC50 [4]: 12.5 µM (active)
AC50 [5]: 27.7 µM (active)
AC50 (INS1): 0.752 µM (active)
AC50 [6]: 23.2 µM (active)
AC50 [7]: 2.35 µM (active)
AC50 [8]: 25.7 µM (active)
AC50 [9]: 0.715 µM (active)

SMILES: CC1CCCN(c2nc3ccsc3c(=O)s2)C1 (configuration not stated)
AC50 [4]: > 52 µM (inactive)

SMILES: Oc1ccccc1CNc1cccc2cccnc12
AC50 [2]: 14.4 µM (active)

Second part, the molecule after the results:

AC50 [1]: 4.12 µM (active)
AC50 [2]: > 20 µM (inactive)
SMILES: CC1=NOC(=O)/C1=C\c1ccc(-c2ccc(Br)cc2)o1

EC50 [10]: > 53 µM (inactive)
IC50 [11]: 67.8 µM (inactive)
IC50 [12]: > 47.1 µM (inactive)
EC50 [13]: > 195 µM (not active)
IC50 [14]: 27 µM (inactive)
SMILES: Cc1[nH]c(=O)c(C#N)cc1-c1csc(-c2ccccc2)n1
